Results on five compounds are retold here after ChEMBL document CHEMBL4390689 (Bioorg Med Chem Lett, 2019).

Assay [1] concerns the target Tubulin (Sus scrofa) (UniProt P02554+P02550). The assay is described as follows: Competitive displacement of BODIPY-VBL from porcine brain tubulin at 1.8 uM in presence of GTP by fluorescence method relative to control.
For assay [2], the species on record is Bos taurus. Put plainly: Inhibition of bovine microtubule polymerization at 143 pM and measured upto 5000 sec by tubulin polymerisation assay.
For assay [3], the system named is L1210. The assay is described as follows: Growth inhibition of mouse L1210 cells measured after 72 hrs by phosphatase assay. The class given is functional, cell-based. To be noted: L1210, 72 h.
Assay [4] deals with HCT-116/VM46. Put plainly: Growth inhibition of human HCT116/VM46 cells measured after 72 hrs by phosphatase assay. It is filed as functional, cell-based. As to conditions: HCT-116/VM46, 72 h.
The subject of assay [5] is HCT-116. The assay is described as follows: Growth inhibition of human HCT116 cells measured after 72 hrs by phosphatase assay. The class given is functional, cell-based. To be noted: HCT-116, 72 h.
The species named for assay [6] is Bos taurus. Put plainly: Inhibition of bovine microtubule polymerization at 143 nM and measured upto 5000 sec by tubulin polymerisation assay.
The target of assay [7] is T1, Tubulin (Homo sapiens) (UniProt P68371+Q9H4B7+P0DPH7+P68366+Q13509+Q71U36+P04350+Q3ZCM7+P07437+P68363+Q9BQE3+Q6PEY2+Q13885+Q9BVA1+Q9BUF5). Put plainly: Induction of microtubule disposition in human HeLa cells assessed as appearance of multiple clumps of tubulin at 500 pM for 20 hrs measured by immunofluorescence method. The class given is cell-based.
For assay [8], the system named is HeLa. Put plainly: Induction of mitotic arrest in human HeLa cells after 24 hrs by immunofluorescence based confocal microscopy relative to control. The class given is functional, cell-based.
Assay [9] addresses Tubulin beta (Homo sapiens) (UniProt P68371+Q9H4B7+Q13509+P04350+Q3ZCM7+P07437+Q13885+Q9BVA1+Q9BUF5+A6NNZ2). The assay is described as follows: Induction of microtubule disposition in human HeLa cells assessed as detection of beta tubulin isoform at 500 nM for 20 hrs measured by immunofluorescence method. The class given is cell-based.
The target of assay [10] is T1, Tubulin (Homo sapiens). Put plainly: Induction of microtubule disposition in human HeLa cells assessed as appearance of clumps of tubulin without […] at 500 pM incubated for 20 hrs measured by immunofluorescence method. It is filed as cell-based.
For assay [11], the species on record is Sus scrofa. The assay is described as follows: Effect on GMPCPP-induced porcine brain microtubule polymerization assessed as catalytic depolymerisation of microtubulin at 2 uM measured upto 30 mins by UV spectrophotometric method.
The species entered for assay [12] is Sus scrofa. The assay is described as follows: Inhibition of GMPCPP-induced porcine brain microtubule polymerization at 2 uM measured upto 30 mins by UV spectrophotometric method.
In assay [13] the target is T2, Tubulin alpha (Homo sapiens) (UniProt P0DPH7+P68366+Q71U36+P68363+Q9BQE3+Q6PEY2+A6NHL2+Q9NY65). Put plainly: Induction of microtubule disposition in human HeLa cells assessed as detection of alpha tubulin isoform at 500 nM for 20 hrs measured by immunofluorescence method. It is filed as cell-based.
Assay [14] has as its target T1, Tubulin (Homo sapiens). The assay is described as follows: Inhibition of human GFP tagged tubulin expressed in human HeLa cells assessed as suppression of microtubule dynamics at 500 nM after 5 hrs by TIRF super resolution microscopy. The class given is cell-based.
Assay [15] has as its system HeLa. The assay is described as follows: Growth inhibition of human HeLa cells measured after 72 hrs by phosphatase assay. The class given is functional, cell-based.
Assay [16] has as its system HeLa. Put plainly: Induction of microtubule disposition in human HeLa cells assessed as detection of gamma tubulin isoform at 500 nM for 20 hrs measured by immunofluorescence method. It is filed as cell-based.
Assay [17] relates to HeLa. The assay is described as follows: Induction of mitotic arrest in human HeLa cells after 24 hrs by immunofluorescence based confocal microscopy relative to vinblastine. The class given is functional.
Assay [18] deals with HeLa. Put plainly: Potency index, ratio of vinblastine effect to compound effect for Induction of mitotic arrest in human HeLa cells after 24 hrs by immunofluorescence based confocal microscopy relative to control. The class given is functional.
Assay [19] is filed under the species Sus scrofa. Put plainly: Inhibition of paclitaxel-induced porcine brain microtubule polymerization at 2 uM under 4 degreeC measured upto 30 mins by UV spectrophotometric method.
The species entered for assay [20] is Bos taurus. Put plainly: Inhibition of bovine microtubule polymerization at 143 uM and measured upto 5000 sec by tubulin polymerisation assay.
The species entered for assay [21] is Sus scrofa. The assay is described as follows: Inhibition of GMPCPP-induced porcine brain microtubule polymerization at 2 uM under 4 degreeC measured upto 30 mins by UV spectrophotometric method.
The species entered for assay [22] is Sus scrofa. Put plainly: Inhibition of paclitaxel-induced porcine brain microtubule polymerization at 2 uM measured upto 30 mins by UV spectrophotometric method.
For assay [23], the target named is T1, Tubulin (Homo sapiens). The assay is described as follows: Inhibition of GFP tagged human tubulin expressed in human HeLa cells assessed as increase in the ratio of short versus medium and long microtubules after 5 hrs by TIRF super resolution microscopy. It is filed as cell-based.
Assay [24] concerns the target T1, Tubulin (Homo sapiens). Put plainly: Inhibition of global microtubule skeleton in human HeLa cells assessed as catastrophic effect on global microtubule skeleton at 75 pM incubated for 20 hrs by Hoechst/[…] staining based confocal microscopy. The class given is cell-based.
Assay [25] concerns HeLa. The assay is described as follows: Induction of microtubule disposition in human HeLa cells assessed as detection of gamma tubulin isoform at 10 nM for 20 hrs measured by immunofluorescence method. It is filed as cell-based.
In assay [26] the target is T2, Tubulin alpha (Homo sapiens). Put plainly: Induction of microtubule disposition in human HeLa cells assessed as detection of alpha tubulin isoform at 10 nM for 20 hrs measured by immunofluorescence method. The class given is cell-based.

Calls of active or inactive are those of the source. The calls are words filed in the database; no cut-off is given here.

One may read the IC50 as the concentration needed to halve the response being measured.

`CC[C@]1(NC(=O)N2Cc3ccccc3C2)C[C@H]2CN(CCc3c([nH]c4ccccc34)[C@@](C(=O)OC)(c3cc4c(cc3OC)N(C)[C@H]3[C@@](O)(C(=O)OC)[C@H](OC(C)=O)[C@]5(CC)C=CCN6CC[C@]43[C@@H]65)C2)C1`: in assay [1], the Activity came out at 49%.
Consider `CC[C@]1(NC(=O)N2Cc3ccc(NC(=O)c4cccnn4)cc3C2)C[C@H]2CN(CCc3c([nH]c4ccccc34)[C@@](C(=O)OC)(c3cc4c(cc3OC)N(C)[C@H]3[C@@](O)(C(=O)OC)[C@H](OC(C)=O)[C@]5(CC)C=CCN6CC[C@]43[C@@H]65)C2)C1`, for which, in assay [1], the Activity came to 101%. For the same compound, the inhibition result in assay [2] and in assay [6] was “inactive” in each case. Besides, the IC50 in [3] stood at 0.059 nM; in [4], 0.87 nM; in assay [5], 0.067 nM.
Regarding `CC[C@]1(NC(=O)N2Cc3ccc(NC(=O)c4cnccn4)cc3C2)C[C@H]2CN(CCc3c([nH]c4ccccc34)[C@@](C(=O)OC)(c3cc4c(cc3OC)N(C)[C@H]3[C@@](O)(C(=O)OC)[C@H](OC(C)=O)[C@]5(CC)C=CCN6CC[C@]43[C@@H]65)C2)C1`, the outcome in assay [7], in assay [9], in assay [10] and in assay [13] was Active. Further, the results for the Activity result in [8] and in assay [1] were “Dose-dependent effect” and 105%, respectively. The outcome in assay [11] and in assay [16] was inactive. Moreover, the inhibition entry in assay [2], in assay [12], in assay [22], in assay [6] and in assay [24] was “inactive” each time. The IC50 is 0.059 nM in [3], 0.83 nM in assay [4], 0.075 nM in [5] and 0.083 nM in [15]. Besides, the inhibition entry in assay [14], in assay [19], in assay [20], in assay [21] and in assay [23] was “Active” each time. Besides, the “fold change (FC)” value in [17] was found to be 100. In [18], the Ratio is recorded as 100.
With `CC[C@]1(NC(=O)N2Cc3ccc(NC(=O)c4ccncn4)cc3C2)C[C@H]2CN(CCc3c([nH]c4ccccc34)[C@@](C(=O)OC)(c3cc4c(cc3OC)N(C)[C@H]3[C@@](O)(C(=O)OC)[C@H](OC(C)=O)[C@]5(CC)C=CCN6CC[C@]43[C@@H]65)C2)C1`, the Activity in assay [1] was determined as 104%. Also, the outcome in [11] was inactive. The inhibition result in [2], in [12], in assay [22] and in assay [6] was “inactive” throughout. Moreover, the IC50 in [3] worked out at 0.062 nM; in assay [4] it was 0.88 nM; in assay [5], 0.074 nM. Further, the inhibition result in assay [19] and in [21] was “Active” in each case.
As to `CC[C@]1(O)C[C@@H]2CN(CCc3c([nH]c4ccccc34)[C@@](C(=O)OC)(c3cc4c(cc3OC)N(C)[C@H]3[C@@](O)(C(=O)OC)[C@H](OC(C)=O)[C@]5(CC)C=CCN6CC[C@]43[C@@H]65)C2)C1` [VINBLASTINE], the Activity entry was “Dose-dependent effect” in assay [8] and 31% in [1]. In addition, the outcome in assay [25] was inactive. In [15], this compound showed a concentration for half-maximal inhibition (IC50) of 7.8 nM. Further, the outcome in assay [26] was Active. In assay [20], the inhibition entry is “Active”.
